Data: BindingDB's records for doi:10.1046/j.1471-4159.2000.0752590.x (F. Hoffmann-La Roche, 2000)

Assays:
[1] = molecular target: Metabotropic glutamate receptor 5 (Homo sapiens, UniProt P41594)
[2] = molecular target: Metabotropic glutamate receptor 1 (Homo sapiens, UniProt Q13255)
Chain of Metabotropic glutamate receptor 1 (Q13255 whole entry): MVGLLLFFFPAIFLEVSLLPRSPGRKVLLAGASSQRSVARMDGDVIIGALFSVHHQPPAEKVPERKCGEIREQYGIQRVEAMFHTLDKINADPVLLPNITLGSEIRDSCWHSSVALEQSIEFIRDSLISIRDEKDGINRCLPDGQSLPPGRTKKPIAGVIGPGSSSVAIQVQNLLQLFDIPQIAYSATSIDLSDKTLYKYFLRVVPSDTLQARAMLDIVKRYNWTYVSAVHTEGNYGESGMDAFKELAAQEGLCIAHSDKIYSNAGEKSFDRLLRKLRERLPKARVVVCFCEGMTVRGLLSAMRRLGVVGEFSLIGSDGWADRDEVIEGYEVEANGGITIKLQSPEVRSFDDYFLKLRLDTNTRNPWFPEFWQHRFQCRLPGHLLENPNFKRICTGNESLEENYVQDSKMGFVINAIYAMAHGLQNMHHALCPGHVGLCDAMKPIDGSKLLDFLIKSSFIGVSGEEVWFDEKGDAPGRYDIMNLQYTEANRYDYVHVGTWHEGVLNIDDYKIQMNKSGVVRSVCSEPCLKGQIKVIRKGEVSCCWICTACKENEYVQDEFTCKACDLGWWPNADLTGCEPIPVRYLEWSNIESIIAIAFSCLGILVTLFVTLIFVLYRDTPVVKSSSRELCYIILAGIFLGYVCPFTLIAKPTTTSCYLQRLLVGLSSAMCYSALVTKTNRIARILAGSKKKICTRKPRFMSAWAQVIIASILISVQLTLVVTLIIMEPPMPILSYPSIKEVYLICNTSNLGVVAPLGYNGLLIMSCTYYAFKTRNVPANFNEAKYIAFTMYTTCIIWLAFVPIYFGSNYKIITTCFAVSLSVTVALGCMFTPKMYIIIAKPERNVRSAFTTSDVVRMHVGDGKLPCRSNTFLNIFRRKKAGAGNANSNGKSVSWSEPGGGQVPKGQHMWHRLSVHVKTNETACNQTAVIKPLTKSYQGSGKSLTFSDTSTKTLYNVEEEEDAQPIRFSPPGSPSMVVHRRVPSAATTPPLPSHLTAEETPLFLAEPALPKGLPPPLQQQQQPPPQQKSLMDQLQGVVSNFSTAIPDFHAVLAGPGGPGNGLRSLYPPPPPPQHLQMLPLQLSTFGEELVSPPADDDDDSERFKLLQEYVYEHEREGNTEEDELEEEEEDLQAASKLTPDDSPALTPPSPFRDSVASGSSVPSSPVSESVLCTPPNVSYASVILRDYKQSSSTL

Chain of Metabotropic glutamate receptor 5 (P41594 whole entry): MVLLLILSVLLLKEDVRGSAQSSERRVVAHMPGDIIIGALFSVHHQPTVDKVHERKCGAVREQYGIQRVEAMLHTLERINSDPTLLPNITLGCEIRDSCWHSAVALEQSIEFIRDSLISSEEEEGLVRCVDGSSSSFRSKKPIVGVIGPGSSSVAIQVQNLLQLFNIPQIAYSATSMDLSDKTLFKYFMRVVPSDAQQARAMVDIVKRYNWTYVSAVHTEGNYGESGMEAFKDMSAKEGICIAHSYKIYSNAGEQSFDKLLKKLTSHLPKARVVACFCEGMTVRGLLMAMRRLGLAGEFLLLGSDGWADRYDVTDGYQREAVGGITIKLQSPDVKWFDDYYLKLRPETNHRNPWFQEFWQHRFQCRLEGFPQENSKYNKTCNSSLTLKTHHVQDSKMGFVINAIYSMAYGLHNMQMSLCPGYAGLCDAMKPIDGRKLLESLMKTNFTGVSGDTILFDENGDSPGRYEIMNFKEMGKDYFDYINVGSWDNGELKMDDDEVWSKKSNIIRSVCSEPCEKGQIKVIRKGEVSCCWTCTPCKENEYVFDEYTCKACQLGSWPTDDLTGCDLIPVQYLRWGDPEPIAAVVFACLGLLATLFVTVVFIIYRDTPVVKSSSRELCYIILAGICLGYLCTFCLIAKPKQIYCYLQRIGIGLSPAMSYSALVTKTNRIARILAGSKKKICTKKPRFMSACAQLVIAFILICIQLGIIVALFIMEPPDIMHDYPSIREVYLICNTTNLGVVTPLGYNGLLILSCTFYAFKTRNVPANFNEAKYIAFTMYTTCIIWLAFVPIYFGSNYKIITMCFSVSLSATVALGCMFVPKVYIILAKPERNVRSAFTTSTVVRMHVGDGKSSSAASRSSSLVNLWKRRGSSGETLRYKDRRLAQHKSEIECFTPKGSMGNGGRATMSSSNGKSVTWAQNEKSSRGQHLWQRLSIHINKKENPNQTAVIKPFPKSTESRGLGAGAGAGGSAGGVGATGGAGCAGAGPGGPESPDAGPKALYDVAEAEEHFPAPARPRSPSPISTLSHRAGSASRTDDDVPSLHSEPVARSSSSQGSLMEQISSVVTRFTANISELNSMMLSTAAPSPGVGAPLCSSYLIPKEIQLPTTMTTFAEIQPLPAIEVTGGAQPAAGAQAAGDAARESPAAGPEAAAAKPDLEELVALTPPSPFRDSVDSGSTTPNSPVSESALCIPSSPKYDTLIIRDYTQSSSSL

Compound	Ki [1] [µM]	Ki [2] [µM]
N[C@@H](CCP(=O)(O)O)C(=O)O	> 10	> 10
N[C@@]1(C(=O)O)CC[C@H](C(=O)O)C1 [1S, 3R-ACPD]	2.1	
N[C@@H](Cn1oc(=O)[nH]c1=O)C(=O)O [2-amino-3-(3,5-dioxo[1,2,4]oxadiazolidin-2-yl)propionic acid]	0.029	
Cc1onc(O)c1CC(N)C(=O)O (stereo not drawn) [(RS)-2-amino-3-(3-hydroxy-5-methylisoxazol-4-yl)-propionicacid]	> 10	> 10
N[C@H](C(=O)O)c1cccc(O)c1 [(S)-3-Hydroxyphenylglycine]	8.4	> 10
NC(C(=O)O)c1cc(=O)[nH]o1 (stereo unspecified) [Amino-(3-hydroxy-isoxazol-5-yl)-acetic acid(Ibotenic acid)]	1.9	1.2
N[C@H](CP(=O)(O)O)C(=O)O [CAS_23052-80-4]	> 10	> 10

The next lines start with the values.

Ki [1] [µM]	Ki [2] [µM]	Compound
2.5		NC(C(=O)O)c1ccc(C(=O)O)c(O)c1 (stereo unspecified)
> 10	> 10	C[C@@](N)(C(=O)O)c1ccc(C(=O)O)cc1 (racemic)
> 10	> 10	NC1(C(=O)O)CCc2cc(C(=O)O)ccc21 (racemic) [AIDA]
> 10	0.7	Cc1cc(C(N)C(=O)O)ccc1C(=O)O (stereo unspecified) [2Me4CPG]
> 10	3.7	N[C@@H](C(=O)O)c1ccc(C(=O)O)cc1 [(S)-4CPG]
3.9	0.9	Nc1nc(O)c2ncn(COC(CO)CO)c2n1 [CAS_82410-32-0]
> 10	> 10	NC(C(=O)O)c1cc(O)ccc1Cl (stereo unspecified) [CHPG]
> 10	> 10	N[C@H](C(=O)O)C1[C@@H](C(=O)O)[C@@H]1C(=O)O (stereo partly specified) [DCG-IV]
1.5	2.3	N[C@H](C(=O)O)[C@H]1C[C@H]1C(=O)O [L-CCG-IV]
> 10	> 10	O=c1nc2c3cc(-n4ccnc4)c([N+](=O)[O-])cc3[nH]c(=O)n2[nH]1 [Ro-48-8587]
